# Experimental data taken from patent US20120115724A1, “METHOD OF CONTROLLING UNDESIRED VEGETATION” (SYNGENTA CROP PROTECTION LLC, priority 2009, published 2012).
# Key:
# [1] = test system: Alopecurus myosuroides (ALOMY); test: Pre-emergence biological efficacy (Example 13); format: in vivo; settings: Alopecurus myosuroides, 312 h; pre-emergence, 1,000 g/ha, after 13 days; read-out: Percentage damage ALOMY
# Method in brief: (§1)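 Seeds sown in standard soil in pots, kept one day in a glasshouse (24/16 °C day/night, 14 h light, 65% humidity), then sprayed with aqueous solution from acetone/water (50:50) with 0.5% Tween 20 at 250 or 1000 g/ha. Damage scored after 13 days (0 = none, 100 = total).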
# [2] = test system: Amaranthus retroflexus (AMARE); test: Pre-emergence biological efficacy (Example 13); format: in vivo; settings: Amaranthus retroflexus, 312 h; pre-emergence, 1,000 g/ha, after 13 days; read-out: Percentage damage AMARE
# Method in brief: as §1
# [3] = test system: Echinochloa crus-galli (ECHCG); test: Pre-emergence biological efficacy (Example 13); format: in vivo; settings: Echinochloa crus-galli, 312 h; pre-emergence, 1,000 g/ha, after 13 days; read-out: Percentage damage ECHCG
# Method in brief: as §1
# Setaria faberi (SETFA) [4] = test: Pre-emergence biological efficacy (Example 13); format: in vivo; settings: Setaria faberi, 312 h; pre-emergence, 1,000 g/ha, after 13 days; read-out: Percentage damage SETFA
# Method in brief: as §1
# Solanum nigrum (SOLNI) [5] = test: Pre-emergence biological efficacy (Example 13); format: in vivo; settings: Solanum nigrum, 312 h; pre-emergence, 1,000 g/ha, after 13 days; read-out: Percentage damage SOLNI
# Method in brief: as §1
# [6] = test system: Alopecurus myosuroides (ALOMY); test: Post-emergence biological efficacy (Example 14); format: in vivo; settings: Alopecurus myosuroides, 312 h; post-emergence, 1,000 g/ha, after 13 days; read-out: Percentage damage ALOMY
# Method in brief: (§2)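 Pot-grown seedlings raised 8 days in a glasshouse (24/16 °C day/night, 14 h light, 65% humidity) were sprayed post-emergence with compound in acetone/water (50:50) plus 0.5% Tween 20 at 250 or 1000 g/ha. Damage was scored visually after 13 days on a 0–100 scale (100 = total kill).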
# [7] = test system: Amaranthus retroflexus (AMARE); test: Post-emergence biological efficacy (Example 14); format: in vivo; settings: Amaranthus retroflexus, 312 h; post-emergence, 1,000 g/ha, after 13 days; read-out: Percentage damage AMARE
# Method in brief: as §2
# [8] = test system: Echinochloa crus-galli (ECHCG); test: Post-emergence biological efficacy (Example 14); format: in vivo; settings: Echinochloa crus-galli, 312 h; post-emergence, 1,000 g/ha, after 13 days; read-out: Percentage damage ECHCG
# Method in brief: as §2
# [9] = test system: Ipomea hederaceae (IPOHE); test: Post-emergence biological efficacy (Example 14); format: in vivo; settings: Ipomoea hederacea, 312 h; post-emergence, 1,000 g/ha, after 13 days; read-out: Percentage damage IPOHE
# Method in brief: as §2
# Setaria faberi (SETFA) [10] = test: Post-emergence biological efficacy (Example 14); format: in vivo; settings: Setaria faberi, 312 h; post-emergence, 1,000 g/ha, after 13 days; read-out: Percentage damage SETFA
# Method in brief: as §2
# Solanum nigrum (SOLNI) [11] = test: Post-emergence biological efficacy (Example 14); format: in vivo; settings: Solanum nigrum, 312 h; post-emergence, 1,000 g/ha, after 13 days; read-out: Percentage damage SOLNI
# Method in brief: as §2
# [12] = test system: ABUTH Abutilon theophrasti; test: Post-emergence crop and weed test (Example 15); format: in vivo; settings: 360 h, after 15 days, read-out: Percentage damage ABUTH
# Method in brief: (§3)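 Scoring: percent damage at 15 days after treatment, where 100 means total damage and 0 no damage. Treatment was a foliar spray of 14-day-old potted plants, using active ingredient diluted from a 5% acetone-based emulsifiable stock into water containing 0.2% X-77 adjuvant.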
# [13] = test system: AMARE Amaranthus retroflexus; test: Post-emergence crop and weed test (Example 15); format: in vivo; settings: 360 h, after 15 days, read-out: Percentage damage AMARE
# Method in brief: as §3
# CHEAL Chenopodium album = test: Post-emergence crop and weed test (Example 15); format: in vivo; settings: 360 h, after 15 days, read-out: Percentage damage CHEAL
# Method in brief: as §3
# [14] = test system: EPHHL Euphorbia heterophylla; test: Post-emergence crop and weed test (Example 15); format: in vivo; settings: 360 h, after 15 days, read-out: Percentage damage EPHHL
# Method in brief: as §3
# GALAP Galium aparine = test: Post-emergence crop and weed test (Example 15); format: in vivo; settings: 360 h, after 15 days, read-out: Percentage damage GALAP
# Method in brief: as §3
# GLXMA Soybean = test: Post-emergence crop and weed test (Example 15); format: in vivo; settings: Glycine max, 360 h, after 15 days, read-out: Percentage damage GLXMA
# Method in brief: as §3
# IPOHE Ipomoea hederacea = test: Post-emergence crop and weed test (Example 15); format: in vivo; settings: 360 h, after 15 days, read-out: Percentage damage IPOHE
# Method in brief: as §3
# KCHSC Kochia scoparia = test: Post-emergence crop and weed test (Example 15); format: in vivo; settings: Bassia scoparia, 360 h, after 15 days, read-out: Percentage damage KCHSC
# Method in brief: as §3
# [15] = test system: POLCO Polygonum convolvulus; test: Post-emergence crop and weed test (Example 15); format: in vivo; settings: Fallopia convolvulus, 360 h, after 15 days, read-out: Percentage damage POLCO
# Method in brief: as §3
# SIDSP Sida spinosa = test: Post-emergence crop and weed test (Example 15); format: in vivo; settings: 360 h, after 15 days, read-out: Percentage damage SIDSP
# Method in brief: as §3
# SINAR Sinapis arvensis = test: Post-emergence crop and weed test (Example 15); format: in vivo; settings: Mutarda arvensis, 360 h, after 15 days, read-out: Percentage damage SINAR
# Method in brief: as §3
# VERPE Veronica persica = test: Post-emergence crop and weed test (Example 15); format: in vivo; settings: 360 h, after 15 days, read-out: Percentage damage VERPE
# Method in brief: as §3
# [16] = test system: XANST Xanthium strumarium; test: Post-emergence crop and weed test (Example 15); format: in vivo; settings: 360 h, after 15 days, read-out: Percentage damage XANST
# Method in brief: as §3
# [17] = test system: Ipomea hederaceae (IPOHE); test: Pre-emergence biological efficacy (Example 13); format: in vivo; settings: Ipomoea hederacea, 312 h; pre-emergence, 1,000 g/ha, after 13 days; read-out: Percentage damage IPOHE
# Method in brief: as §1
structure (smiles),measurement,setting,value
C=Cc1c(N)nc(-c2ccc(Cl)c(N(C)C)c2F)nc1C(=O)OC [Compound 1],pest or weed control at 1000 g/ha,[1],80%
same,pest or weed control at 1000 g/ha,[2],100%
same,pest or weed control at 1000 g/ha,[3],90%
same,pest or weed control at 1000 g/ha,Setaria faberi (SETFA) [4],90%
same,pest or weed control at 1000 g/ha,Solanum nigrum (SOLNI) [5],100%
same,pest or weed control at 1000 g/ha,[6],90%
same,pest or weed control at 1000 g/ha,[7],100%
same,pest or weed control at 1000 g/ha,[8],100%
same,pest or weed control at 1000 g/ha,[9],90%
same,pest or weed control at 1000 g/ha,Setaria faberi (SETFA) [10],100%
same,pest or weed control at 1000 g/ha,Solanum nigrum (SOLNI) [11],100%
same,pest or weed control at 30 g/ha,[12]; 30 g/ha,90%
same,pest or weed control at 30 g/ha,[13]; 30 g/ha,100%
same,pest or weed control at 30 g/ha,CHEAL Chenopodium album; 30 g/ha,90%
same,pest or weed control at 30 g/ha,[14]; 30 g/ha,90%
same,pest or weed control at 30 g/ha,GALAP Galium aparine; 30 g/ha,20%
same,plant injury at 30 g/ha,GLXMA Soybean; 30 g/ha,0%
same,pest or weed control at 30 g/ha,IPOHE Ipomoea hederacea; 30 g/ha,40%
same,pest or weed control at 30 g/ha,KCHSC Kochia scoparia; 30 g/ha,80%
same,pest or weed control at 30 g/ha,[15]; 30 g/ha,90%
same,pest or weed control at 30 g/ha,SIDSP Sida spinosa; 30 g/ha,60%
same,pest or weed control at 30 g/ha,SINAR Sinapis arvensis; 30 g/ha,10%
same,pest or weed control at 30 g/ha,VERPE Veronica persica; 30 g/ha,80%
same,pest or weed control at 30 g/ha,[16]; 30 g/ha,100%
same,melting point,,136 to 137 °C
"C=Cc1c(NCc2ccco2)nc(-c2ccc(Cl)c(OC)c2F)nc1C(=O)OC [Compound 6, 2-(4-chloro-2-fluoro-3-methoxyphenyl)-5-ethenyl-4-(furan-2-ylmethylamino)-6-methoxycarbonylpyrimidine]",pest or weed control at 1000 g/ha,[1],70%
same,pest or weed control at 1000 g/ha,[2],100%
same,pest or weed control at 1000 g/ha,[3],80%
same,pest or weed control at 1000 g/ha,[17],90%
same,pest or weed control at 1000 g/ha,Setaria faberi (SETFA) [4],80%
same,pest or weed control at 1000 g/ha,Solanum nigrum (SOLNI) [5],100%
same,pest or weed control at 1000 g/ha,[6],80%
same,pest or weed control at 1000 g/ha,[7],100%
same,pest or weed control at 1000 g/ha,[8],80%
same,pest or weed control at 1000 g/ha,[9],80%
same,pest or weed control at 1000 g/ha,Setaria faberi (SETFA) [10],90%
same,pest or weed control at 1000 g/ha,Solanum nigrum (SOLNI) [11],90%
same,pest or weed control at 125 g/ha,[12]; 125 g/ha,80%
same,pest or weed control at 125 g/ha,[13]; 125 g/ha,100%
same,pest or weed control at 125 g/ha,CHEAL Chenopodium album; 125 g/ha,90%
same,pest or weed control at 125 g/ha,[14]; 125 g/ha,90%
same,pest or weed control at 125 g/ha,GALAP Galium aparine; 125 g/ha,70%
same,plant injury at 125 g/ha,GLXMA Soybean; 125 g/ha,10%
same,pest or weed control at 125 g/ha,IPOHE Ipomoea hederacea; 125 g/ha,80%
same,pest or weed control at 125 g/ha,KCHSC Kochia scoparia; 125 g/ha,60%
same,pest or weed control at 125 g/ha,[15]; 125 g/ha,70%
same,pest or weed control at 125 g/ha,SIDSP Sida spinosa; 125 g/ha,80%
same,pest or weed control at 125 g/ha,SINAR Sinapis arvensis; 125 g/ha,60%
same,pest or weed control at 125 g/ha,VERPE Veronica persica; 125 g/ha,70%
same,pest or weed control at 125 g/ha,[16]; 125 g/ha,100%
same,melting point,,100 to 102 °C
